# Earlier results, collected in US20030203963A1, “Antimicrobial agent” (priority 2001, published 2003).
# How the values were obtained:
# Details in all cases: cited from earlier work
# [1] = test system: Salmonella
# [2] = test system: Gram-positive bacteria, yeasts, and moulds
# [3] = test system: aerobic, Gram-negative bacteria
# [4] = test system: yeasts and moulds as well as catalase-positive bacteria
# [5] = test system: bacteria
molecule,measurement,setting,value
Nisin,Inhibition of Salmonella,[1]; in food,unable to inhibit
O=S=O [Sulphur Dioxide],Effective concentrations,[2],800-2000 ppm
same,Effective concentrations for inhibition,[3],250-500 ppm
C/C=C/C=C/C(=O)O [Sorbic Acid],Effective concentration,[4],500-3000 ppm
Propionic Acid and Propionate,Concentrations necessary for inhibition of bacteria,[5],> 16000 ppm
O=NO [nitrite],Concentration at which Salmonella is inhibited,[1]; meat products,"> 1,000 ppm"
